Source: ChEMBL document CHEMBL5260810, “Inhibition of bromodomain-containing protein 9 for the prevention of epigenetically-defined drug resistance” (Bioorg Med Chem Lett, 2017)
pIC50: −log10 of the molar value. Activity calls are given as the source filed them. The calls are words filed in the database; no cut-off is given here.

Tests used:
PC-9 = assay: Antiproliferative activity against human PC-9 cells assessed as reduction in colony formation upto 20 uM supplemented with fresh medium containing compound every 3 days for 9 days by MTT staining based clonogenic assay; type: functional, cell-based; settings: time 9.0 day
HPAC = assay: Antiproliferative activity against HPAC assessed as reduction in colony formation upto 20 uM supplemented with fresh medium containing compound every 3 days for 9 days by MTT staining based clonogenic assay; type: functional, cell-based; settings: Homo sapiens, time 9.0 day
Capan-2 = assay: Antiproliferative activity against human Capan-2 cells assessed as reduction in colony formation up to 20 uM supplemented with fresh medium containing compound every 3 days for 9 days by MTT staining based clonogenic assay; type: functional, cell-based; settings: time 9.0 day
HCC1954 = assay: Antiproliferative activity against human HCC1954 cells assessed as reduction in colony formation upto 20 uM supplemented with fresh medium containing compound every 3 days for 9 days by MTT staining based clonogenic assay; type: functional, cell-based; settings: time 9.0 day
A-375 = assay: Antiproliferative activity against human A-375 cells assessed as reduction in colony formation up to 20 uM supplemented with fresh medium containing compound every 3 days for 9 days by MTT staining based clonogenic assay; type: functional, cell-based; settings: time 9.0 day
HMV-2 cell line = assay: Antiproliferative activity against human HMV-2 cell line assessed as reduction in colony formation up to 20 uM supplemented with fresh medium containing compound every 3 days for 9 days by MTT staining based clonogenic assay; type: functional; settings: time 9.0 day
Pfeiffer = assay: Cytotoxicity against human Pfeiffer cells measured after 8 days; type: functional, cell-based; settings: 192 h
THP-1 = assay: Cytotoxicity against human THP-1 cells measured after 8 days; type: functional, cell-based; settings: THP-1, 192 h
[1] = Cytotoxicity against human OCI-M1 cells measured after 3 days; type: functional, cell-based; settings: OCI-M1, 72 h
SCC-3 = assay: Cytotoxicity against human SCC-3 cells measured after 3 days; type: functional, cell-based; settings: SCC-3, 72 h
769-P = assay: Cytotoxicity against human 769-P cells measured after 3 days; type: functional, cell-based; settings: 72 h
786-0 = assay: Cytotoxicity against human 786-0 cells measured after 3 days; type: functional, cell-based; settings: 786-0, 72 h
G-402 = assay: Cytotoxicity against human G-402 cells measured after 3 days; type: functional, cell-based; settings: G-402, 72 h
TK-10 = assay: Cytotoxicity against human TK-10 cells measured after 3 days; type: functional, cell-based; settings: TK-10, 72 h
[2] = Cytotoxicity against human Li-7 cells measured after 3 days; type: functional, cell-based; settings: Li-7, 72 h
SNU-423 = assay: Cytotoxicity against human SNU-423 cells measured after 3 days; type: functional, cell-based; settings: SNU-423, 72 h
[3] = Cytotoxicity against human HCC2450 cells measured after 3 days; type: functional, cell-based; settings: HCC2450, 72 h
[4] = Cytotoxicity against human LUDLU-1 cells measured after 3 days; type: functional, cell-based; settings: LUDLU-1, 72 h
NCI-H520 = assay: Cytotoxicity against human NCI-H520 cells measured after 3 days; type: functional, cell-based; settings: NCI-H520, 72 h
[5] = Cytotoxicity against human MOLP8 cells measured after 3 days; type: functional, cell-based; settings: MOLP-8, 72 h
[6] = Cytotoxicity against human PL-21 cells measured after 3 days; type: functional, cell-based; settings: PL-21, 72 h
KMS-11 = assay: Cytotoxicity against human KMS-11 cells measured after 3 days; type: functional, cell-based; settings: KMS-11, 72 h
NCI-H929 = assay: Cytotoxicity against human NCI-H929 cells measured after 3 days; type: functional, cell-based; settings: NCI-H929, 72 h
[7] = Cytotoxicity against human NCE-G 112 cells measured after 3 days; type: functional, cell-based; settings: NCE-G 112, 72 h
[8] = Cytotoxicity against human NCE-G 122 cells measured after 3 days; type: functional, cell-based; settings: NCE-G 122, 72 h
[9] = Cytotoxicity against human NCE-G 140 cells measured after 3 days; type: functional, cell-based; settings: NCE-G 140, 72 h
NCI-H460 = assay: Cytotoxicity against human NCI-H460 cells measured after 3 days; type: functional, cell-based; settings: NCI-H460, 72 h
HT = assay: Cytotoxicity against human HT cells measured after 3 days; type: functional, cell-based; settings: 72 h
SUD4 = assay: Cytotoxicity against human SU-DHL-4 cells measured after 3 days; type: functional, cell-based; settings: SU-DHL-4, 72 h
[10] = Cytotoxicity against human Ci-1 cells measured after 3 days; type: functional, cell-based; settings: Ci-1, 72 h
WSUDLCL2 = assay: Cytotoxicity against human WSUDLCL2 cells measured after 3 days; type: functional, cell-based; settings: WSUDLCL2, 72 h
[11] = Cytotoxicity against human WSU-FSCCL cells measured after 3 days; type: functional, cell-based; settings: 72 h
SK-MES-1 = assay: Cytotoxicity against human SK-MES-1 cells measured after 3 days; type: functional, cell-based; settings: SK-MES-1, 72 h
SK-OV-3 = assay: Cytotoxicity against human SK-OV-3 cells measured after 3 days; type: functional, cell-based; settings: SK-OV-3, 72 h
DOV13 = assay: Cytotoxicity against human DOV13 cells measured after 3 days; type: functional, cell-based; settings: DOV13, 72 h
SW982 = assay: Cytotoxicity against human SW982 cells measured after 3 days; type: functional, cell-based; settings: SW982, 72 h
CAL-148 = assay: Cytotoxicity against human CAL-148 cells measured after 3 days; type: functional, cell-based; settings: CAL-148, 72 h
CAMA-1 = assay: Cytotoxicity against human CAMA-1 cells measured after 3 days; type: functional, cell-based; settings: CAMA-1, 72 h
MDA-MB-175-VII = assay: Cytotoxicity against human MDA-MB-175-VII cells measured after 3 days; type: functional, cell-based; settings: 72 h
MDA-MB-361 = assay: Cytotoxicity against human MDA-MB-361 cells measured after 3 days; type: functional, cell-based; settings: MDA-MB-361, 72 h
[12] = Cytotoxicity against human EFM-192C cells measured after 3 days; type: functional, cell-based; settings: 72 h
SUM-159-PT = assay: Cytotoxicity against human SUM159PT cells measured after 3 days; type: functional, cell-based; settings: 72 h
HCC1395 = assay: Cytotoxicity against human HCC1395 cells measured after 3 days; type: functional, cell-based; settings: HCC1395, 72 h
MCF-10A = assay: Cytotoxicity against human MCF-10A cells measured after 3 days; type: functional, cell-based; settings: 72 h
[13] = Cytotoxicity against human OVCA432 cells measured after 3 days; type: functional, cell-based; settings: OVCA432, 72 h
[14] = Cytotoxicity against human COV362 cells measured after 3 days; type: functional, cell-based; settings: COV362, 72 h
[15] = Cytotoxicity against human COV362.4 cells measured after 3 days; type: functional, cell-based; settings: COV362.4, 72 h
[16] = Cytotoxicity against human PMF-ko14 cells measured after 3 days; type: functional, cell-based; settings: PMF-ko14, 72 h
[17] = Cytotoxicity against human COLO-704 cells measured after 3 days; type: functional, cell-based; settings: COLO 704, 72 h
HCC2935 = assay: Cytotoxicity against human HCC2935 cells after 8 days; type: functional, cell-based; settings: HCC2935, 192 h
DU-4475 = assay: Cytotoxicity against human DU-4475 cells after 8 days; type: functional, cell-based; settings: DU-4475, 192 h
[18] = Cytotoxicity against human EFM-192C cells measured after 8 days; type: functional, cell-based; settings: 192 h
[19] = Cytotoxicity against human NCI-H2073 cells measured after 8 days; type: functional, cell-based; settings: NCI-H2073, 192 h
MCF7 = assay: Cytotoxicity against human MCF-7-SER cells measured after 8 days; type: functional, cell-based; settings: MCF7, 192 h
EBC-1 = assay: Cytotoxicity against human EBC-1 cells after 8 days; type: functional, cell-based; settings: EBC-1, 192 h
[20] = Cytotoxicity against human HCC193 cells after 8 days; type: functional, cell-based; settings: HCC193, 192 h

In the case of `C/C=C/Cn1cc(-c2ccc(C(C)(C)O)cc2OC)c2cc[nH]c2c1=O`, the Activity (PC-9) was “Active”, the Activity (HPAC) was “inactive” and the Activity (Capan-2) was “inactive”. The Activity (HCC1954) was “Active”, the Activity (A-375) was “inactive” and the Activity (HMV-2 cell line) was “inactive”. It also gave a pIC50 (Pfeiffer) of 5.16 and a pIC50 (THP-1) of 4.79.
For `C/C=C/Cn1cc(-c2cc(OC)c(C(=O)N3CCOCC3)cc2OC)c2cc(C)[nH]c2c1=O`, the pIC50 [1] was 5.30, the pIC50 (SCC-3) was 5.30 and the pIC50 (769-P) was 5.30. For the same compound, the pIC50 (786-0) was 5.30, the pIC50 (G-402) was 5.30 and the pIC50 (TK-10) was 5.30. It also gave a pIC50 [2] of 5.30, a pIC50 (SNU-423) of 5.30 and a pIC50 [3] of 5.30. It also gave a pIC50 [4] of 5.30, a pIC50 (NCI-H520) of 5.30 and a pIC50 [5] of 5.30. For the same compound, the pIC50 [6] was 5.30, the pIC50 (KMS-11) was 5.30 and the pIC50 (NCI-H929) was 5.30. For the same compound, the pIC50 [7] was 5.30, the pIC50 [8] was 5.30 and the pIC50 [9] was 5.30. The pIC50 (NCI-H460) was 5.30, the pIC50 (HT) was 5.30 and the pIC50 (SUD4) was 5.30. It also gave a pIC50 [10] of 5.30, a pIC50 (WSUDLCL2) of 5.30 and a pIC50 [11] of 5.30. It also gave a pIC50 (SK-MES-1) of 5.30, a pIC50 (SK-OV-3) of 5.30 and a pIC50 (DOV13) of 5.30. The pIC50 (SW982) was 5.30, the pIC50 (CAL-148) was 5.30 and the pIC50 (CAMA-1) was 5.30. It also gave a pIC50 (MDA-MB-175-VII) of 5.30, a pIC50 (MDA-MB-361) of 5.30 and a pIC50 [12] of 5.30. For the same compound, the pIC50 (SUM-159-PT) was 5.30, the pIC50 (HCC1395) was 5.30 and the pIC50 (MCF-10A) was 5.30. For the same compound, the pIC50 [13] was 5.30, the pIC50 [14] was 5.30 and the pIC50 [15] was 5.30. For the same compound, the pIC50 [16] was 5.30, the pIC50 [17] was 5.30 and the pIC50 (HCC2935) was 5.70. The pIC50 (DU-4475) was 5.70, the pIC50 [18] was 5.70 and the pIC50 [19] was 5.70. It also gave a pIC50 (MCF7) of 5.70, a pIC50 (EBC-1) of 5.70 and a pIC50 [20] of 5.70.
